Measurements as given in ChEMBL document CHEMBL5346977, “Discovery of Novel d-(+)-Biotin-Conjugated Resorcinol Dibenzyl Ether-Based PD-L1 Inhibitors for Targeted Cancer Immunotherapy” (J Med Chem, 2023).
Activity calls are given as the source filed them. No cut-off for these calls is given here.

Key:
[1] = target: T1, Programmed cell death protein 1/Programmed cell death 1 ligand 1 (Homo sapiens) (UniProt Q15116+Q9NZQ7); experiment: Inhibition of GST-tagged PD-1 (unknown origin)/His-tagged PD-L1 (unknown origin) interaction at 10 nM by HTRF binding assay relative to control; assay type: protein-complex assay
[2] = target: T1, Programmed cell death protein 1/Programmed cell death 1 ligand 1 (Homo sapiens); experiment: Inhibition of GST-tagged PD-1 (unknown origin)/His-tagged PD-L1 (unknown origin) interaction at 100 nM by HTRF binding assay relative to control; assay type: protein-complex assay
[3] = target: T1, Programmed cell death protein 1/Programmed cell death 1 ligand 1 (Homo sapiens); experiment: Inhibition of GST-tagged PD-1 (unknown origin)/His-tagged PD-L1 (unknown origin) interaction at 10 uM by HTRF binding assay; assay type: protein-complex assay
[4] = target: Programmed cell death 1 ligand 1 (Homo sapiens, UniProt Q9NZQ7); experiment: Binding affinity to human PD-L1 at 20 uM by SPR analysis
Programmed cell death 1 ligand 1, sequence (Q9NZQ7 whole entry): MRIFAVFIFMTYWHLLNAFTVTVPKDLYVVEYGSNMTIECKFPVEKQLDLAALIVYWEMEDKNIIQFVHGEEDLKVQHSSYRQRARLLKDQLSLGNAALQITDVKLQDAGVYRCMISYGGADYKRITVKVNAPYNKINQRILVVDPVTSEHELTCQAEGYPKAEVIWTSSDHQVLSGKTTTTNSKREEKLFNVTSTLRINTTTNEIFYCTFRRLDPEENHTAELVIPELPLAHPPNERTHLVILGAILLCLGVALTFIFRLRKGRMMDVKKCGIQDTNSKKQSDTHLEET

[5] = target: Programmed cell death 1 ligand 1 (Mus musculus) (UniProt Q9EP73); experiment: Binding affinity to mouse PD-L1 at 20 uM by SPR analysis
Programmed cell death 1 ligand 1 (Mus musculus), sequence (Q9EP73 whole entry): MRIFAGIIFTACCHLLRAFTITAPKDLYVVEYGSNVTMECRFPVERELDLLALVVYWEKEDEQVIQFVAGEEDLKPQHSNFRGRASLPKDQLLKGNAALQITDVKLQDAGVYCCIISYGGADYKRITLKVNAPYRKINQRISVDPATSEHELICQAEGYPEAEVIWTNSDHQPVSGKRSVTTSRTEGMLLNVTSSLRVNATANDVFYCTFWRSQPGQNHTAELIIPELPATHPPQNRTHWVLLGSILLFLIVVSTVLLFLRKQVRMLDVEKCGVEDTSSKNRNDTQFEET

[6] = target: T2, Programmed cell death protein 1/Programmed cell death 1 ligand 1 (Homo sapiens, UniProt Q9NZQ7); experiment: Inhibition of GST-tagged PD-1 (unknown origin)/His-tagged PD-L1 (unknown origin) interaction by HTRF binding assay relative to control; assay type: protein-complex assay
T2 sequence (Q15116 whole entry): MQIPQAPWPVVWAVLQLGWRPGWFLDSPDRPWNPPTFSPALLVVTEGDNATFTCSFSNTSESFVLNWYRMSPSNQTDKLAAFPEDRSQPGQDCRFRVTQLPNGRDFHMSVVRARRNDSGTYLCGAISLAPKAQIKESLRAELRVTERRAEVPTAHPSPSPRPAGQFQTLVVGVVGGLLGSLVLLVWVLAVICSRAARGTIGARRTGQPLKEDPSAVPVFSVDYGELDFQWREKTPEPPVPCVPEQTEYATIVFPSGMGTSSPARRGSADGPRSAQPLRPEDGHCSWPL
T2 sequence (Q9NZQ7 whole entry): as the sequence (Q9NZQ7 whole entry) above

HepG2 = experiment: Antitumor immunity activity against human HepG2 cells expressing human PD-L1 co-cultured with human Jurkat T cells expressing human PD-1 assessed as reduction in cell viability at 10 uM incubated for 48 hrs by CCK8 assay relative to control; assay type: functional
[7] = target: T2, Programmed cell death protein 1/Programmed cell death 1 ligand 1; experiment: Inhibition of interaction of PD-1 (unknown origin) expressed in Jurkat T cells carrying luciferase reporter under the control of NFAT promoter/PD-L1 (unknown origin) expressed in CHO cells co-expressing TCR ligand and T-cell surrogate pretreated with CHO cells for 0.5 hrs followed by Jurkat T cell addition and measured after 5 hrs by luminescence based analysis
[8] = AUC (0 to t) in Sprague-Dawley rat at 1 mg/kg, iv administered as single dose and measured after 48 hrs by HPLC-MS/MS analysis; assay type: ADME, organism-based; set-up: dose 1 mg/kg, time 48 hrs, route iv; settings: in vivo
[9] = AUC (0 to infinity) in Sprague-Dawley rat at 1 mg/kg, iv administered as single dose and measured after 48 hrs by HPLC-MS/MS analysis; assay type: ADME, organism-based; set-up: dose 1 mg/kg, time 48 hrs, route iv; settings: in vivo
[10] = MRT (0 to t) in Sprague-Dawley rat at 1 mg/kg, iv administered as single dose and measured after 48 hrs by HPLC-MS/MS analysis; assay type: ADME, organism-based; settings: in vivo
[11] = MRT (0 to infinity) in Sprague-Dawley rat at 1 mg/kg, iv administered as single dose and measured after 48 hrs by HPLC-MS/MS analysis; assay type: ADME, organism-based; settings: in vivo
[12] = Half-life in Sprague-Dawley rat at 1 mg/kg, iv administered as single dose and measured after 48 hrs by HPLC-MS/MS analysis; assay type: ADME, organism-based; settings: in vivo
[13] = Tmax in Sprague-Dawley rat at 1 mg/kg, iv administered as single dose and measured after 48 hrs by HPLC-MS/MS analysis; assay type: ADME, organism-based; settings: in vivo
[14] = Clearance in Sprague-Dawley rat at 1 mg/kg, iv administered as single dose and measured after 48 hrs by HPLC-MS/MS analysis; assay type: ADME, organism-based; settings: in vivo
[15] = Apparent volume of distribution in Sprague-Dawley rat at 1 mg/kg, iv administered as single dose and measured after 48 hrs by HPLC-MS/MS analysis; assay type: ADME, organism-based; settings: in vivo, read-out: Vz
[16] = Initial drug concentration in Sprague-Dawley rat at 1 mg/kg, iv administered as single dose and measured after 48 hrs by HPLC-MS/MS analysis; assay type: ADME, organism-based; settings: in vivo
B16-F10 [17] = experiment: Antitumor activity against mouse B16-F10 cells implanted in BALB/c mouse assessed as reduction in tumor growth inhibition at 50 mg/kg, ip administered once daily for 14 days relative to control; assay type: functional; settings: B16-F10, 336 h, time 14 day, read-out: TGI
B16-F10 [18] = experiment: Antitumor immunity against mouse B16-F10 cells implanted in allogenic BALB/c mouse assessed as increase in CD3+ T cells at 50 mg/kg, ip by flow cytometric analysis (reference value: 2.51%); assay type: functional
[19] = Toxicity in allogenic BALB/c mouse implanted with mouse B16-F10 cells assessed as severe crypt necrosis in colon at 50 mg/kg, ip by H&E staining based analysis; assay type: organism-based; settings: in vivo
[20] = Toxicity in allogenic BALB/c mouse implanted with mouse B16-F10 cells assessed as inflammatory cell infiltration in colon at 50 mg/kg, ip by H&E staining based analysis; assay type: organism-based; settings: in vivo

Structure (SMILES) | inhibition [1] [%] | inhibition [2] [%] | also measured
Cc1c(COc2cc(OCc3cccc(C#N)c3)c(CN3CCCCC3C(=O)N3CCN(C(=O)CCCC[C@@H]4SC[C@@H]5NC(=O)N[C@@H]54)CC3)cc2Cl)cccc1-c1ccc2c(c1)OCCO2 (stereo partly specified) | 17.3 | 80.9 | –
Cc1c(COc2cc(OCc3cccc(C#N)c3)c(CNC(C)(C)C(=O)N3CCN(C(=O)CCCC[C@H]4SC[C@H]5NC(=O)N[C@H]54)CC3)cc2Cl)cccc1-c1ccc2c(c1)OCCO2 | 9.1 | 59.3 | –
O=C(O)CCCC[C@@H]1SC[C@@H]2NC(=O)N[C@@H]21 | – | – | inhibition [3]: inactive; Activity [4]: inactive; Activity [5]: inactive
Cc1c(COc2cc(OCc3cccc(C#N)c3)c(CN3CCCCC3C(=O)N(C)CCNC(=O)CCCC[C@@H]3SC[C@@H]4NC(=O)N[C@@H]43)cc2Cl)cccc1-c1ccccc1 (stereo partly specified) | 34.9 | 104 | IC50 [6]: 10.8 nM
Cc1c(COc2cc(OCc3cccc(C#N)c3)c(CNC(C)(C)C(=O)NCCCNC(=O)CCCC[C@@H]3SC[C@@H]4NC(=O)N[C@@H]43)cc2Cl)cccc1-c1ccccc1 | 10.4 | 81.5 | –
Cc1c(COc2cc(OCc3cccc(C#N)c3)c(CN3CCCCC3C(=O)N3CCN(C(=O)CCCC[C@@H]4SC[C@@H]5NC(=O)N[C@@H]54)CC3)cc2Cl)cccc1-c1ccccc1 (stereo partly specified) | 93.1 | 102 | IC50 [6]: 3.4 nM
Cc1c(COc2cc(OCc3cccc(C#N)c3)c(CNC(C)(C)C(=O)N3CCN(C(=O)CCCC[C@@H]4SC[C@@H]5NC(=O)N[C@@H]54)CC3)cc2Cl)cccc1-c1ccccc1 | 11.2 | 68.1 | –
Cc1c(COc2cc(OCc3cccc(C#N)c3)c(CN3CCCCC3C(=O)N3CCC(NC(=O)CCCC[C@H]4SC[C@H]5NC(=O)N[C@H]54)CC3)cc2Cl)cccc1-c1ccc2c(c1)OCCO2 (stereo partly specified) | 13.4 | 90.6 | –
Cc1c(COc2cc(OCc3cccc(C#N)c3)c(CNC(C)(C)C(=O)NCCNC(=O)CCCC[C@@H]3SC[C@@H]4NC(=O)N[C@@H]43)cc2Cl)cccc1-c1ccccc1 | 21.3 | 79.2 | –
Cc1c(COc2cc(OCc3cccc(C#N)c3)c(CN3CCCCC3C(=O)NCCNC(=O)CCCC[C@H]3SC[C@H]4NC(=O)N[C@H]43)cc2Cl)cccc1-c1ccc2c(c1)OCCO2 (stereo partly specified) | 26.8 | 88.5 | –
Cc1c(COc2cc(OCc3cccc(C#N)c3)c(CN3CCCCC3C(=O)NC3CCN(C(=O)CCCC[C@@H]4SC[C@@H]5NC(=O)N[C@@H]54)CC3)cc2Cl)cccc1-c1ccccc1 (stereo partly specified) | 29.1 | 99.2 | IC50 [6]: 11.6 nM
Cc1c(COc2cc(OCc3cccc(C#N)c3)c(CNC(C)(C)C(=O)N3CCC(NC(=O)CCCC[C@H]4SC[C@H]5NC(=O)N[C@H]54)CC3)cc2Cl)cccc1-c1ccc2c(c1)OCCO2 | -7.5 | 42.6 | –
Cc1c(COc2cc(OCc3cccc(C#N)c3)c(CN3CCCCC3C(=O)NCCN)cc2Cl)cccc1-c1ccccc1 (stereo unspecified) | – | – | Activity (HepG2): 31%; EC50 [7]: 4650 nM; AUCt [8]: 1.8 µg·h/mL; AUC [9]: 1.83 µg·h/mL; MRT last at 48 h [10]: 1.8 h; MRT inf [11]: 2.3 h; half-life [12]: 6.4 h; Tmax [13]: 4.98 min; clearance [14]: 0.5 L/h/kg; Vd [15]: 5.3 L/kg; C0 at 48 h [16]: 2.63 µg/mL; inhibition in vivo at 50 mg/kg (B16-F10 [17]): 44.3%; Activity (B16-F10 [18]): 8.45%; Activity [19]: Toxic; Activity [20]: Toxic
Cc1c(COc2cc(OCc3cccc(C#N)c3)c(CN3CCCCC3C(=O)N3CCC(NC(=O)CCCC[C@@H]4SC[C@@H]5NC(=O)N[C@@H]54)CC3)cc2Cl)cccc1-c1ccccc1 (stereo partly specified) | 100 | 97.2 | IC50 [6]: 4 nM
Cc1c(COc2cc(OCc3cccc(C#N)c3)c(CNC(C)(C)C(=O)N3CCC(NC(=O)CCCC[C@@H]4SC[C@@H]5NC(=O)N[C@@H]54)CC3)cc2Cl)cccc1-c1ccccc1 | 6.8 | 64.1 | –
Cc1c(COc2cc(OCc3cccc(C#N)c3)c(CN3CCCCC3C(=O)NCCCNC(=O)CCCC[C@@H]3SC[C@@H]4NC(=O)N[C@@H]43)cc2Cl)cccc1-c1ccccc1 (stereo partly specified) | 85.2 | 104 | IC50 [6]: 5.6 nM
Cc1c(COc2cc(OCc3cccc(C#N)c3)c(CNC(C)(C)C(=O)NCCNC(=O)CCCC[C@H]3SC[C@H]4NC(=O)N[C@H]43)cc2Cl)cccc1-c1ccc2c(c1)OCCO2 | -4 | 66.9 | –
Cc1c(COc2cc(OCc3cccc(C#N)c3)c(CN3CCCCC3C(=O)NC3CCN(C(=O)CCCC[C@H]4SC[C@H]5NC(=O)N[C@H]54)CC3)cc2Cl)cccc1-c1ccc2c(c1)OCCO2 (stereo partly specified) | 11.2 | 84.7 | –
Cc1c(COc2cc(OCc3cccc(C#N)c3)c(CNC(C)(C)C(=O)NC3CCN(C(=O)CCCC[C@H]4SC[C@H]5NC(=O)N[C@H]54)CC3)cc2Cl)cccc1-c1ccccc1 | 5.9 | 74.6 | –
Cc1c(COc2cc(OCc3cccc(C#N)c3)c(CN3CCCCC3C(=O)N(C)CCNC(=O)CCCC[C@@H]3SC[C@@H]4NC(=O)N[C@@H]43)cc2Cl)cccc1-c1ccc2c(c1)OCCO2 (stereo partly specified) | 20.1 | 82.6 | –
Cc1c(COc2cc(OCc3cccc(C#N)c3)c(CNC(C)(C)C(=O)NC3CCN(C(=O)CCCC[C@H]4SC[C@H]5NC(=O)N[C@H]54)CC3)cc2Cl)cccc1-c1ccc2c(c1)OCCO2 | 3.7 | 50.1 | –
